Measured values reported in ChEMBL document CHEMBL1134094, “Cell permeability as a parameter for lead generation in the protein Tyrosine kinase inhibition field” (2001).

Key:
Caco-2 [1] = test: Computed polar surface area (PSA) for the compound […]; assay type: functional
Caco-2 [2] = test: Substrate affinity was determined; passive; assay type: functional, cell-based; conditions: Homo sapiens
Caco-2 [3] = test: Cell membrane permeability for the compound determined by human Caco-2 monolayer assay (10e-5 cm/min); assay type: functional

Compound	3D PSA (Caco-2 [1])	Affinity (Caco-2 [2])	Pm (Caco-2 [3])
COc1ccc(-c2cn(Cc3ccccc3)c3ccc(O)nc23)cc1	45	passive	90.5 10e-5*cm/min
COc1ccc(Cn2cc(-c3ccc(OC)cc3)c3c(N)ncnc32)cc1	69.2	passive	61.9 10e-5*cm/min
Nc1ncnc2c1c(-c1ccccc1)cn2Cc1ccccc1	46.6		
COc1ccc(-c2cn(Cc3ccccc3)c3ncnc(N)c23)cc1	58.2	passive	78.2 10e-5*cm/min
COc1ccc(Cn2cc(-c3ccc(OC)cc3)c3nc(O)ccc32)cc1	55.1	passive	83 10e-5*cm/min
Oc1ccc2c(n1)c(-c1ccccc1)cn2Cc1ccccc1	33.4		
